According to patent US20240216464A1, “IL1RA DERIVED PEPTIDES FOR TREATMENT OF DIABETIC NEPHROPATHY” (SERODUS APS, priority 2021, published 2024):
“Also recorded” adds a separate entry of the source. Ends that are not written are not given here.

What was measured:
[1] = test system: macrophages; details: downstream of IL-1 receptor activation; cited from earlier work
[2] = biological target: T1, IL-1R1 (Homo sapiens, UniProt P14778); details: cited from earlier work
T1 sequence (P14778 18-569): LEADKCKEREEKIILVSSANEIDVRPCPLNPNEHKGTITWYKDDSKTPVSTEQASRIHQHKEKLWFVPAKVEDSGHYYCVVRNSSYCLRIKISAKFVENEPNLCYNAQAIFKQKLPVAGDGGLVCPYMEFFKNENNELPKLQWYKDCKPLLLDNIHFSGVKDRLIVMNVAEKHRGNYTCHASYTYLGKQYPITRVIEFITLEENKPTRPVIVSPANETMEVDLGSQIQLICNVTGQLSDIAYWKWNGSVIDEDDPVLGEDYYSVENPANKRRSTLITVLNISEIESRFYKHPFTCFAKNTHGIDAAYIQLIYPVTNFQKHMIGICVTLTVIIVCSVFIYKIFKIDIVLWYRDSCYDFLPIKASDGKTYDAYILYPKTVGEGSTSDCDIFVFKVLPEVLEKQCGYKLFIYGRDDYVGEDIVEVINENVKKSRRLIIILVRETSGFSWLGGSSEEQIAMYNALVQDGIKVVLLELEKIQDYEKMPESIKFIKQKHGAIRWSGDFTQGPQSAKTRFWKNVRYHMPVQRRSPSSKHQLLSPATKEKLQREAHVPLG

[3] = test system: Renin AAV Uni-nephrectomized db/db (Renin AAV UNx) mice; experiment: Renin AAV uni-nephrectomized db/db mouse model of diabetic nephropathy, 77 days treatment; assay type: in vivo
Description: 56 female mice (BKS.Cg-Dock7m+/+ Lepradb/db BLKS, 5 weeks of age) were transferred to the Gubra Research animal unit. The animals were group housed until uni-nephrectomies, then single housed. Throughout the habituation and study period the animals were in a light-, temperature- and humidity-controlled room with free access to food and water. All animal experiments were conducted in accordance with Gubra bioethical guidelines, which are fully compliant to internationally accepted principles for the care and use of laboratory animals.
Animals were terminated on day 77; blood was taken for later analysis, body weight was recorded, and spot urine was collected.
SER140 was provided by Phlogo ApS, Copenhagen, Denmark (10 mg/ml miliQ water diluted to the different dose formulations). SER140 is a dendrimer composed of four monomeric peptides each with the sequence SGRKSSKMQA (SEQ ID NO:1), and coupled to a lysine backbone. Vehicle was miliQ:PBS 1:5.
After one week of acclimatization the mice received an IV injection of Renin adenosin-associated virus (AAV). […]
All blood samples were taken from the mice tail in heparinized tubes, plasma was separated and stored at minus 80 C until analysis. Non-fasting BG (blood glucose) was measured using BIOSEN c-line glucose meter (EKF-diagnostics, Germany), blood for HbA1c analysis was immediately suspended in Hemolyzing Reagent and stored until analysis using autoanalyzer Cobas C-111 with commercial kit (Roche Diagnostics, Germany), plasma urea using commercial kits (Roche Diagnostics).
Urine samples were stored at minus 80 C until analysis. Urine for measurement of albumin and creatinine were centrifuged at 2000 g for 2 min prior to analysis Urine albumin was measure using a commercial ELISA kit (Bethyl Laboratories, Inc.), according to the manufacturer's instructions, and urine creatinine was measured using a commercial kit (Roche Diagnostics) on the Cobas c 501 autoanalyzer, according to the manufacturer's instructions. Urinary KIM-1 was measured using a commercial ELISA kit (R&D Systems), according to the manufacturer's instructions.

| Substance | macrophages liberation / secretion of TNFα [1] | receptor binding of IL-1p [2] | urinary albumin corrected for creatinine (ACR) ([3]; spot urine, day 77, 3, 10 and 20 mg/kg SER140 subcutaneously once daily vs vehicle, FIG. 1 (medians)) | urinary KIM-1 corrected for creatinine (KIM-1/CR) ([3]; spot urine, day 77, 3, 10 and 20 mg/kg SER140 subcutaneously once daily vs vehicle, FIG. 2 (means)) | HbA1c ([3]; vehicle vs SER140 treatment) |
| --- | --- | --- | --- | --- | --- |
| SGRKSSKMQA (Variant of fragment of IL1RA) [SEQ ID NO:1, 10-amino acid peptide derived from IL1RA] | inhibit |  |  |  |  |
| SER140: dendrimer composed of four monomeric peptides each with the sequence SGRKSSKMQA (SEQ ID NO:1), coupled to a lysine backbone (also: tetrameric dendrimer: four copies coupled to a lysine backbone) | reduce | inhibit | decreased; also recorded: significantly reduced | decreased; also recorded: significantly reduced | no changes |
